# From patent publication US7691905B2, “Inhibition of melanogenesis and melanoma metastasis with p-aminobenzoic acid (PABA)” (New York University, priority 2002, dated 2010)
# Experiments:
# transplantable melanoma = details: hamsters; Zbytniewski et al. 1977; cited from earlier work
# B16 melanoma cells [1] = test: B16 melanoma cell proliferation with PABA and/or Taxol, direct cell counts; assay type: cell-based; details: 10.0 μM paclitaxel and/or 0.1 mg/ml PABA, DMEM, 48-hour incubation
# Description: (§1) Cell proliferation was determined by direct cell counts.
# The ability of PABA to enhance the anti-proliferative effect of the chemotherapeutic agent, Taxol, was tested in B16 melanoma cells. […] Cell proliferation was monitored by direct cell counts over a 48-hour incubation period.
# B16 melanoma cells [2] = test: Melanin secretion of B16 melanoma cells, colour of DMEM medium; assay type: cell-based; details: 0.1 mg/ml PABA in DMEM, seven days; unsupplemented medium turned brown
# Description: The RPMI medium remained red due to the inhibition of melanin secretion. One of the major components in RPMI that is absent in DMEM is PABA. To assess the effect of PABA on melanin secretion from B16 cells, PABA was added to DMEM culture medium to achieve the same concentration as that found in the RPMI medium: 0.1 mg of PABA per milliliter of medium. Cells were grown in PABA-supplemented DMEM medium for seven days. The PABA-supplemented medium remained red, while the unsupplemented medium turned brown.
# B16 melanoma cells [3] = test: Melanin content of culture medium by absorbance at 405 nm and 660 nm; assay type: cell-based; details: PABA 0.5 mg/day and 1.0 mg/day, DMEM
# Description: Melanin levels were determined by absorbance at 405 nm wavelength (A) and absorbance at 660 nm wavelength (B). To further analyze the effects of PABA on B16 melanoma cell melanin secretion, PABA was added at concentrations of 0.5 mg/day and 1.0 mg/day to B16 melanoma cells cultured in DMEM. Samples of the culture medium were then analyzed for melanin content by measuring absorbance at wavelengths of 405 nm and 660 nm.
# B16 melanoma cells [4] = test: Intracellular melanin, colour of cell pellets; assay type: cell-based; details: 0.1 mg/ml PABA, three weeks of culture; untreated pellets black
# Description: To determine whether PABA inhibits the intracellular synthesis of melanin in B16 cells, cells were grown in DMEM in the presence or absence of 0.1 mg/ml PABA. Following three weeks of culture, cells were collected by centrifugation. Cell pellets from cells cultured in the absence of PABA appeared black, as normal, indicating the presence of melanin.
# tyrosinase = test: Tyrosinase activity, Dopachrome formation from L-DOPA (OD 475 nm); assay type: biochemical; details: L-DOPA 8.0 mM, 800 U purified tyrosinase
# Description: Tyrosinase activity was assessed by measuring the formation of Dopachrome from L-DOPA using absorbance at 475 nm wavelength.
# The effects of PABA on tyrosinase activity were evaluated by measuring the formation of Dopachrome using a previously published method. (Heidcamp W (1995), supra.) L-DOPA (8.0 mM) was resuspended in sodium citrate buffer and 800 U of purified tyrosinase was added. Tyrosinase activity was measured by monitoring the formation of Dopachrome by measuring the optical density of the mixture at a wavelength of 475 nm. To assess the effects of PABA, the reactions were performed in the presence or absence of PABA. As a control, reactions were performed in the presence of adenosine instead of PABA.
# B16 melanoma cells [5] = test: B16 melanoma experimental metastasis in chick embryo model; assay type: in vivo; details: cells grown with 0.1 mg/ml PABA for one to three weeks, injected into 12-day old chick embryos, 7-day incubation
# Description: The number of melanoma metastases were measured by counting the number of metastatic lung tumor lesions present in lungs from sacrificed chick embryos. The effect of PABA on the aggressiveness and invasiveness of B16 melanoma was measured in a chick embryo model. (Brooks PC et al. (1994) Cell 79:1157-1164.) The effects of PABA on B16 experimental metastasis in vivo were evaluated to determine the role melanin synthesis plays in the aggressiveness and invasiveness of melanoma metastasis. B16 melanoma cells grown in the presence or absence of 0.1 mg/ml PABA for one to three weeks were injected into 12-day old chick embryos. At the end of a 7-day incubation period, the embryos were sacrificed and the number of metastatic lung tumor lesions were quantified.
# B16 melanoma cells [6] = test: Chick embryo tumor growth assay, B16 melanoma on CAM; assay type: in vivo; details: cells grown with 0.1 mg/ml PABA for 6 weeks, CAM of 10-day old chick embryos, 7 days
# Description: The effect of PABA on solid tumor growth in vivo were evaluated using the chick embryo tumor growth assay. (Petitclerc E et al. (2000) J Biol Chem 275:8051-8061.) B16 melanoma cells were grown in the presence or absence of 0.1 mg/ml PABA for 6 weeks. Cells were harvested and 2.5×10^5 cells from each group were inoculated in the chorioallantoic membranes (CAM) of 10-day old chick embryos. The embryos were allowed to develop for a further seven days. At the end of the 7-day incubation period, the embryos were sacrificed and the tumors removed and wet weights determined. Tumors formed from B16 melanoma cells treated with PABA were, on average, 60% smaller than tumors derived from untreated B16 melanoma cells (FIG. 4).
# B16 melanoma cells [7] = test: B16 melanoma cell proliferation with ionizing radiation, direct cell counts; assay type: cell-based; details: 0.1 mg/ml PABA plus single fraction dose of 10 Gy, 3-day incubation
# Description: as §1
# (Kinnaert E et al. (2000) Radiation Res 154:497-502.) Thus, blocking melanin synthesis or melanogenesis may cause melanoma cells to become much more sensitive to radiation therapy. To test the effect of PABA on the anti-proliferative effects of ionizing radiation, B16 melanoma cells grown in the presence or absence of 0.1 mg/ml PABA were treated with a single fraction dose of 10 Gy of ionizing radiation. Cell proliferation was monitored by direct cell counts over a 3-day incubation period.
# [8] = tested on: human G-361 melanoma cells; test: Human G-361 melanoma cell proliferation with ionizing radiation, direct cell counts; assay type: cell-based; details: 0.1 mg/ml PABA plus 20 Gy
# Description: as §1
# The radiation-enhancing effect of PABA on melanoma observed in B16 melanoma cells was confirmed in the pigmented human melanoma cell line G-361 (ATCC Number CRL-1424, (1978) Pediatr Res 12:485.) The human G-361 melanoma cells are more resistant to radiation than B16 melanoma cells and thus require a higher dose of ionizing radiation to inhibit growth, compared to B16 cells. Human G-361 melanoma cells were treated with 20 Gy of radiation, either alone or in combination with 0.1 mg/ml PABA, as described in example 7.
# [9] = tested on: Lewis Lung Carcinoma (LLC) cells; test: Lewis Lung Carcinoma cell proliferation, direct cell counts; assay type: cell-based; details: 0.1 mg/ml PABA, DMEM, 48-hour incubation
# Description: The anti-proliferative effect of PABA on carcinoma cells was tested on Lewis Lung Carcinoma (LLC) cells. (Young M R et al. (2003) Int J Cancer 103:38-44.) Cells were grown in DMEM medium in the presence or absence of 0.1 mg/ml PABA. Cell proliferation was monitored by direct cell counts over a 48-hour incubation period.
# [10] = tested on: Lewis Lung Carcinoma (LLC) cells; test: Lewis Lung Carcinoma tumor growth assay on chick embryo CAM; assay type: in vivo; details: cells grown with 0.1 mg/ml PABA for 3 weeks, 7 days
# Description: The effect of PABA on the growth of carcinoma tumors was tested using the Lewis Lung Carcinoma (LLC) tumor growth assay. (Mauceri H J et al. (2002) Cancer Chemother Pharmacol 50:412-418.) LLC cells were grown in DMEM medium in the presence or absence of 0.1 mg/ml PABA for 3 weeks. Cells were harvested and 2×10^6 cells from each group were inoculated in the CAMs of 10-day old chick embryos. The embryos were allowed to develop for a further seven days. At the end of the 7-day incubation period, the embryos were sacrificed and the tumors removed and wet weights determined.
# B16F10 melanoma cells [11] = test: Chick embryo tumor growth assay, B16F10 melanoma, PABA and ionizing radiation; assay type: in vivo; details: tumor wet weight after 7 days
# Description: The chick embryo tumor growth assay (Petitclerc E et al. (2000) J Biol Chem 275:8051-8061) was used to determine whether PABA enhances the effect of ionizing radiation to inhibit tumor growth in vivo. Four groups of chick embryos were studied. […] There were 5 to 10 chick embryos in each group.
# The groups were created in the following manner. B16F10 melanoma cells were cultured for 14 days in growth medium in the absence of PABA or in the presence of PABA at a concentration of 100 μg/ml. The cells were harvested, washed, and resuspended in sterile PBS. The B16F10 melanoma cells were implanted on the CAMs of 10-day-old chick embryos, which were then incubated for at least 24 hours. The incubated chick embryos (some that were cultured in the absence of PABA and some that cultured in the presence of PABA) were treated with a single fraction dose of ionizing radiation (5.0 Gy). The embryos were incubated for 7 days and then the chick embryos of each group were sacrificed. The tumors were resected and tumor growth was assessed by measuring the wet weights of the resected tumors.
# B16F10 melanoma cells [12] = test: In vivo xenograft study of PABA and radiation, B16F10 melanoma; design: species or system Balb/c nude mice; details: tumor volume after 15 days
# Description: 1×10^6 B16F10 melanoma cells (cultured in the absence of PABA) were implanted subcutaneously into Balb/c nude mice. Intraperitoneal injections of PABA at a concentration of 50 mg/kg were started 3 days after implantation of the tumor cells and continued daily. Ten days following tumor cell implantation, mice were either not irradiated or were irradiated with 3 fractions of 3 Gy every other day for a total dose of 9 Gy.
# After 15 days, the animals were sacrificed and the tumors were resected. The tumors were measured and their volumes were calculated.
smiles,measurement,setting,value
"NCc1ccc(C(=O)O)cc1 [PAMBA, para-Aminomethylbenzoic acid]",invasiveness of transplantable melanoma metastases,transplantable melanoma,reducing the invasiveness of transplantable melanoma metastases in hamsters
"CC(=O)O[C@H]1C(=O)[C@@]2(C)[C@H]([C@H](OC(=O)c3ccccc3)[C@]3(O)C[C@H](OC(=O)[C@H](O)[C@@H](NC(=O)c4ccccc4)c4ccccc4)C(C)=C1C3(C)C)[C@]1(OC(C)=O)CO[C@@H]1C[C@@H]2O [Paclitaxel, paclitaxel]",cell proliferation,B16 melanoma cells [1],significantly inhibited B16 melanoma cell proliferation
"Nc1ccc(C(=O)O)cc1 [PABA, para-Aminobenzoic acid]",colour of culture medium (accumulation of secreted melanin),B16 melanoma cells [2],remained red
same,melanin secretion (absorbance of medium at 405 nm and 660 nm),B16 melanoma cells [3],time dependent and concentration dependent inhibition of melanin secretion
same,colour of cell pellets (melanin accumulation),B16 melanoma cells [4],much lighter in color
same,tyrosinase activity (Dopachrome formation),tyrosinase,dose dependent inhibition of Dopachrome formation
same,number of metastatic lung tumor lesions,B16 melanoma cells [5],time dependent inhibition of B16 melanoma metastasis
same,tumor size (wet weight) reduction vs tumors from untreated cells,B16 melanoma cells [6],60%
same,"cell proliferation after radiation, PABA vs no PABA",B16 melanoma cells [7],increased the anti-proliferative and cytotoxic effects
same,"cell proliferation, PABA in combination with radiation",[8],essentially completely inhibited the proliferation
same,cell proliferation,[9],increased the proliferation of LLC cells
same,tumor size (wet weight) vs tumors from untreated LLC cells,[10],significantly larger
same,inhibition of tumor growth as compared to the control group,B16F10 melanoma cells [11]; PABA 100 μg/ml plus single fraction ionizing radiation 5.0 Gy,about 90%
same,inhibition of tumor growth as compared to the control group,"B16F10 melanoma cells [11]; PABA alone, cells cultured 14 days with 100 μg/ml PABA",about 75%
same,inhibition of tumor growth as compared to control,"B16F10 melanoma cells [12]; PABA 50 mg/kg i.p. daily plus 3 fractions of 3 Gy (9 Gy), P<0.002",about 95%
same,effect on tumor growth as compared to control,"B16F10 melanoma cells [12]; PABA alone 50 mg/kg i.p. daily, P>0.100",minimal effect on tumor growth
